Source: patent US20140161769A1, “METHODS FOR TREATING INFLAMMATORY AUTOIMMUNE DISORDERS” (Beth Israel Deaconess Medical Center, Inc., priority 2010, published 2014)

Columns and labels:
MRL/lpr mice = assay: Treatment of MRL/lpr mice with KN-93 (lupus nephritis; urine and kidney histopathology); assay type: in vivo, mouse
Procedure: FIG. 7A is a graph showing the weekly quantification of urinary protein and leukocytes of pre-disease 8-week-old MRL/lpr mice treated with either KN-93 (40 mg/kg) or PBS. The agent was administered by intraperitoneal injections three times a week, every other week, during an 8-week time period. The arrows indicate the administration of the treatment. FIG. 7B is a graph showing the weekly quantification of urinary protein and leukocytes of diseased 12-week-old MRL/lpr mice (n≧5 mice per group) treated with KN-93 or PBS. Treatment was administered three times a week during a 5-week time period. FIG. 7C is a series of representative images of glomerular, tubule-interstitial, and perivascular areas from 16-week-old MRL/lpr mice treated with PBS (upper panels) and KN-93 (stained with Periodic Acid Schiff). The photographs from the middle panels correspond to mice treated before the onset of proteinuria (8 week-old). The lower panels correspond to mice treated after the disease had been established. The magnification is ×40 (glomerular), ×10 (tubular), and ×20 (perivascular).
We recorded proteinuria and pyuria in CaMKIV-deficient and sufficient MRL/lpr mice from the 6th to the 24th week of age. The mice in each group were placed overnight in a Nalgene metabolic cage to collect urine. Urine was measured with Multistix 10SG reagent strips and analyzed by a Clinitek Status analyzer (Bayer Healthcare). Proteinuria increased to 3 g/L in MRL/lpr mice at the age of 14 weeks and remained at the same level thereafter. However, in MRL/lprCaMKIV−/− mice, proteinuria remained at 1 g/L throughout the observation period. The number of leukocytes in the urine increased to 500 μl at week 14 in MRL/lpr mice, whereas it remained less than 15 μl in MRL/lprCaMKIV−/− mice (FIG. 4A).
To rule out such possibility, we used KN-93, a well-known CaMKIV inhibitor (Tsung et al., J Exp Med. 204: 2913-2923, 2007; Sato et al., Nat Med. 12: 1410-1416, 2006; and Ilario et al., Blood 111: 723-731, 2008), to treat MRL/lpr mice and determine its effect on the expression of lupus nephritis. The agent was administered by intraperitoneal injections at a dose of 0.08 mg/mouse, three times a week. We treated MRL/lpr mice with PBS (control) or KN-93 either every other week from week 8 to week 16 (disease prevention) (FIG. 7A) or weekly from week 12 to week 16 (disease treatment) (FIG. 7B).
In the disease prevention experiment, KN-93 administration was started either before the onset of proteinuria, when the mice were 8 weeks old. These mice received the agent every other week. In the disease treatment experiment, the effectiveness of KN-93 in established disease was evaluated. KN-93 administration was started when mice were 12 weeks old and continued three times a week during 5 weeks. Mice of both experiments were sacrificed at the end of their 16th week of age.

[1] = system: Splenocytes isolated from MRL/lpr mice; assay: CD86 expression on CD19 positive B cells of MRL/lpr splenocytes (flow cytometry); assay type: cell-based, mouse; settings: KN-93 (10 μM)
Procedure: Splenocytes were isolated from MRL/lpr mice and stimulated with LPS (1 μg/ml) or PBS for 24 hours. FIGS. 10A and 10C are bar graphs showing the expression of CD86 in LPS-stimulated cells (FIG. 10A) and unstimulated cells (FIG. 10C). A Kruskal-Wallis test was used for statistical analyses. Results are expressed as mean+SD CP=0.01; n=three 24-week-old mice per group). FIGS. 10B and 10D are representative histograms comparing CD86 expression on LPS-stimulated (FIG. 10B) and unstimulated splenocytes (FIG. 10D). Splenocytes were treated with KN-93 (10 μM) (right panel) or PBS (left panel) for 24 hours. Shaded areas represent isotype control staining.
We wished to determine whether CaMKIV deficiency suppresses CD86 expression in all types of antigen presenting cells (APC). Splenocytes were isolated from MRL/lpr and MRL/lprCaMKIV−/− mice and stimulated with LPS (1 μg/ml) or PBS for 24 hours. We stained cells with fluorochrome-conjugated antibodies against the major histocompatibility complex (MHC) class II (eBioscience) (all APCs), CD19 (B cells), CD11c (dendritic cells), and F4/80 (macrophages) (BioLegend). […]
Splenocytes isolated from MRL/lpr mice were stimulated with LPS (1 μg/ml) or PBS for 24 hours in the presence or absence of KN-93. CD19 positive B cells were analyzed for the expression of CD86. […]

Normal human T cells = assay: IFN-γ production and CD69 expression in normal human T cells; assay type: cell-based
Procedure: (§1) FIG. 15A is a bar graph showing IFN-γ levels in supernatants from human T cells incubated with PBS or CD3/28 and treated with either PBS (white bars) or with KN-93 (black bars). FIG. 15B are histograms comparing CD69 expression in human T cells incubated with PBS (left) or with CD3/28 (right). Data are shown for control (gray), treatment with PBS (dotted line), and treatment with KN-93 (solid line). FIG. 15C is a series of bar graphs showing […] (left), IL-6 (middle), and TNF-α(right) levels in supernatants from macrophages incubated with PBS or LPS and treated with either PBS (white bars) or with KN-93 (black bars). Normal human T cells and macrophages were treated with PBS (control) or KN-93. […] Furthermore, the activity of IL-6 in murine mesangial cells decreases in the absence of CaMKIV. Taken together, inhibition of CaMKIV by KN-93 or absence of CaMKIV (e.g., by genetic deficiency) decreases the expression of various pro-inflammatory cytokines, and inhibitors of CaMKIV could be used to treat disorders associated with one or more of such cytokines (e.g., autoimmune disorders).

macrophages = assay: Cytokine production in normal human macrophages; assay type: cell-based; settings: supernatants from macrophages incubated with PBS or LPS, KN-93 vs PBS
Procedure: as §1

primary mesangial cells [2] = assay: Mesangial cell proliferation (cell cycle analysis, flow cytometry); assay type: cell-based, mouse
Procedure: FIG. 16A is a series of histograms in unstimulated cells (left) and cells stimulated with PDGF (right). FIG. 16B is a series of immunoblots of protein extracts obtained from murine mesangial cells and immunoblotted with anti-CDK2 or anti-cyclin D1 antibodies. After isolation from MRL/MPJ or MRL/lpr mice, these cells were untreated, treated with KN-93, treated with PDGF, or treated with both KN-93 and PDGF. Briefly, four hundred thousand primary mesangial cells were incubated in 2 mL of RPMI 1640 with 10% FBS. Cells were plated in 6-well plates and made quiescent by serum starvation for 24 hours. Then, cells were treated with 20 ng/ml of PDGF-BB (PeproTech, Inc. Rocky Hill, N.J.) for 24 hours. In some experiments, cells were pretreated with KN-93 (20 μM) for 48 hours before the addition of PDGF-BB. For cell cycle analysis, mesangial cells were harvested with trypsin, washed twice with PBS, fixed in cold 95% ethanol, and stored at 4° C. until use. Before flow cytometric analysis, cells were washed with PBS and centrifuged, and the cell pellets were resuspended in a solution of RNAse (0.5 mg/ml) in PBS and incubate at 37° C. for 20 minutes. Then, propidium iodide (PI) (40 μg/ml) was added in PBS for 30 minutes. Stained cells were analyzed with a flow cytometer (model FACS Scan; BD Bioscience, Franklin Lakes, N.J.). […]

primary mesangial cells [3] = assay: Western blot of CDK2 and cyclin D1 in mesangial cells; assay type: cell-based, mouse; settings: mesangial cells from MRL/MPJ or MRL/lpr mice, immunoblot
Procedure: FIG. 16A is a series of histograms in unstimulated cells (left) and cells stimulated with PDGF (right). FIG. 16B is a series of immunoblots of protein extracts obtained from murine mesangial cells and immunoblotted with anti-CDK2 or anti-cyclin D1 antibodies. After isolation from MRL/MPJ or MRL/lpr mice, these cells were untreated, treated with KN-93, treated with PDGF, or treated with both KN-93 and PDGF. Briefly, four hundred thousand primary mesangial cells were incubated in 2 mL of RPMI 1640 with 10% FBS. Cells were plated in 6-well plates and made quiescent by serum starvation for 24 hours. Then, cells were treated with 20 ng/ml of PDGF-BB (PeproTech, Inc. Rocky Hill, N.J.) for 24 hours. In some experiments, cells were pretreated with KN-93 (20 μM) for 48 hours before the addition of PDGF-BB. For Western blot analysis, mesangial cells were homogenized in radioimmunoprecipitation assay (RIPA) buffer at 4° C. After centrifugation at 14,000 rpm for 30 min at 4° C., supernatant was collected and stored at −80° C. until use. The following antibodies were used for immunoblot assay: rabbit anti-CDK2, rabbit anti-cyclin D1 (Cell signaling) and rabbit anti-actin (Sigma).

[4] = kidneys of KN-93 treated MRL/lpr mice

COc1ccc(S(=O)(=O)N(CCO)c2ccccc2CN(C)CC=Cc2ccc(Cl)cc2)cc1 [KN-93, N-[2-[[[3-(4-chlorophenyl)-2-propenyl]methylamino]methyl]phenyl]-N-(2-hydroxyethyl)-4-methoxybenzenesulphonamide]
kidney pathology, determined histopathologically (MRL/lpr mice; 16-week-old MRL/lpr mice, KN-93 vs PBS): less kidney pathology
protein in the urine (proteinuria) (MRL/lpr mice; MRL/lpr mice, KN-93 i.p. 0.08 mg/mouse three times a week, both schemes (every other week, weeks 8-16; weekly, weeks 12-16), PBS-treated mice 3 g/L): less than 1 g/L
leukocytes in the urine (pyuria) (MRL/lpr mice; MRL/lpr mice, KN-93 i.p. 0.08 mg/mouse three times a week, both schemes, PBS-treated mice 500 leukocytes/μl): < 125 leukocytes/μl
glomerular crescents (MRL/lpr mice; [4]): did not have any glomerular crescents
glomerular damage, interstitial, and perivascular inflammatory cell infiltration (MRL/lpr mice; [4]): limited
expression of CD86 on stimulated cells ([1]; LPS (1 μg/ml) 24 hours): suppressed
expression of CD86 in non-LPS stimulated cells ([1]; PBS 24 hours): trend towards lower expression
expression of CD69 on T cells (Normal human T cells; normal human T cells, KN-93 vs PBS): decreased expression
production of IFN-γ (Normal human T cells; supernatants from human T cells incubated with PBS or CD3/28, KN-93 vs PBS): decreased production
production of IL-1β (macrophages): decreased production
production of IL-6 (macrophages): decreased production
production of TNF-α (macrophages): decreased production
mesangial cell proliferation (primary mesangial cells [2]; with PDGF stimulation (20 ng/ml PDGF-BB 24 hours), pretreated with KN-93 (20 μM) 48 hours): suppressed
mesangial cell proliferation (primary mesangial cells [2]; without PDGF stimulation, KN-93 (20 μM) 48 hours): suppressed
presence of CD-K2 (primary mesangial cells [3]): decreased
presence of cyclin D1 (primary mesangial cells [3]): decreased
